# Patent US20260355176A1 (NICOVENTURES TRADING LIMITED, priority 2019, published 2026)
# Entries after “also recorded” stand apart in the source; their conditions may differ.
# Experiments:
# [1] = Nicotine and benzoic acid octanol-water partitioning in unbuffered water; type: physicochemical
# Description: The mobile phase was brought to pH 2.5 with H3PO4. The flow rate of the mobile phase was 1 mL/min, and the injection volume was 10 μL.
# [2] = Nicotine octanol-water partitioning with various ion pairing agents and quantities (benzoate, octanoate, decanoate); type: physicochemical; settings: pH 6.5, 1,000 ppm nicotine
# Description: A pH probe was submerged in the resulting liquid and HCl (0.05 M) was added under stirring to bring the solution to pH 6.5. The flask weight was then brought up to 100 grams with RO water. […] Partitioning was performed by removing aliquots (10 mL) of each solution and placing into separate 20 ml scintillation vials. Octanol (10 ml) was added to each vial. The vials were then placed on a wrist action shaker for 20 minutes. Following agitation, the vials were allowed to separate for 30 min, and an aliquot (100 μl) of each octanol layer was removed and diluted with 900 μl octanol in 2 mL GC/MS vials.
compound,measurement,setting,value
O=C(O)c1ccccc1 [benzoic acid],concentration in octanol,"[1]; 1000 ppm nicotine, 1 molar equivalent sodium benzoate, unbuffered water",19.2 ppm
same,benzoic acid molarity in octanol in terms of nicotine mass,[1]; calculated as ppm nicotine,25.5 ppm
CCCCCCCCCC(=O)O [decanoic acid],"octanol-water partitioning, in words",[2],prone to becoming soapy during the vigorous mixing; also recorded: partition into octanol to an extent less than that expected by theory
"CN1CCCC1c1cccnc1 (centres unmarked) [nicotine, reference compound]",% nicotine in octanol (FIG. 6),[2]; 10 eq. octanoic acid,~ 75%
same,% nicotine in octanol (FIG. 6),[2]; benzoic acid at same concentration (10 eq.),~ 52%
